Values of other authors as cited in publication PMC6522624, “Comparison of desferrioxamine and NODAGA for the gallium-68 labeling of exendin-4” (EJNMMI Radiopharmacy and Chemistry, 2019).

How the values were obtained:
[1] = gallium chelation; ref Šimeček et al. [2011]; Evers et al. [1989]
Source text: However, their thermodynamic complex formation stability constant (log K) have been reported to be very similar, with 28.65 for DFO and 29.63 for NOTA (Šimeček et al. [2011]; Evers et al. [1989]).

[2] = in vivo
Source text: Insulinomas generally express highly and specifically the glucagon-like peptide-1 receptor (GLP-1R) as they are of β-cell origin (Reubi and Waser [2003]). GLP-1R is a G-protein coupled receptor of the class B receptor family (Zhang et al. [2017]). […] Dipeptidyl peptidase-4 (DPP4) is responsible for the cleavage of the peptide (Baggio and Drucker [2007]).

Compound	thermodynamic complex formation stability constant (log K) [1]	biological half-life [2]
CC(=O)N(O)CCCCCNC(=O)CCC(=O)N(O)CCCCCNC(=O)CCC(=O)N(O)CCCCCN [DFO, N′-[5-(acetyl-hydroxy-amino)pentyl]-N-[5-[3-(5-aminopentyl-hydroxy-carbamoyl)propanoylamino]pentyl]-N-hydroxy-butane diamide]	28.65	
O=C(O)CN1CCN(CC(=O)O)CCN(CC(=O)O)CC1 [NOTA]	29.63	
GLP-1: endogenous peptide ligand of GLP-1R		about 2 min
